# Values joined by “and” are separate entries in the source; they are usually repeats but may differ in a detail not shown here. Equal values may be shown once.
# Tested on: BDF1 mice, Adenocarcinoma 755 s.c., tumor weight T/C
# Experiment: NCI In Vivo Anticancer Drug Screen. Data for tumor model Adenocarcinoma 755 (subcutaneous) in B6D2F1 (BDF1) mice
# Conditions: endpoint: mean tumor weight, higher = larger tumour
# Procedure, shortened: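 Transplantable tumor implanted; mice dosed with compound or vehicle; survival or tumor size recorded; ratio of treated to vehicle control reported.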
# [1] = dose: 50.0 mg/kg/injection, schedule: Q01DX011 (ip), vehicle: methylcellulose (MC)
# [2] = dose: 100.0 mg/kg/injection, schedule: Q01DX011 (ip), vehicle: methylcellulose (MC)
# [3] = dose: 15.0 mg/kg/injection, schedule: Q01DX011 (ip), vehicle: methylcellulose (MC)
# [4] = dose: 30.0 mg/kg/injection, schedule: Q01DX011 (ip), vehicle: carboxymethylcellulose (CMC)
# [5] = dose: 60.0 mg/kg/injection, schedule: Q01DX011 (ip), vehicle: carboxymethylcellulose (CMC)
# [6] = dose: 120.0 mg/kg/injection, schedule: Q01DX011 (ip), vehicle: carboxymethylcellulose (CMC)
# [7] = dose: 25.0 mg/kg/injection, schedule: Q01DX011 (ip), vehicle: methylcellulose (MC)
compound,measurement,setting,value
CCCn1cnc2c(SCCc3ccccc3)nc(N)nc21,T/C,[1],47 % of control
same,T/C,[2],15 % of control
same,T/C,"dose: 200.0 mg/kg/injection, schedule: Q01DX011 (ip), vehicle: methylcellulose (MC)",18 % of control
Cn1cnc2c(C(F)(F)F)nc(Cl)nc21,T/C,"dose: 30.0 mg/kg/injection, schedule: Q01DX011 (ip), vehicle: saline",98 % of control
same,T/C,"dose: 60.0 mg/kg/injection, schedule: Q01DX011 (ip), vehicle: saline",91 % of control
CSc1ncc(Br)c(SCc2ccc(Cl)cc2Cl)n1,T/C,[3],69 % of control
same,T/C,"dose: 31.0 mg/kg/injection, schedule: Q01DX011 (ip), vehicle: methylcellulose (MC)",108 % of control
same,T/C,"dose: 250.0 mg/kg/injection, schedule: Q01DX011 (ip), vehicle: methylcellulose (MC)",60 % of control
O=[N+]([O-])c1ccc(Oc2cc(Cl)c(Cl)cc2Cl)c([N+](=O)[O-])c1,T/C,"dose: 100.0 mg/kg/injection, schedule: Q01DX011 (ip), vehicle: other",91 % of control
same,T/C,"dose: 200.0 mg/kg/injection, schedule: Q01DX011 (ip), vehicle: carboxymethylcellulose (CMC)",56 % of control and 74 % of control
same,T/C,"dose: 200.0 mg/kg/injection, schedule: Q01DX011 (ip), vehicle: other",91 % of control
same,T/C,"dose: 400.0 mg/kg/injection, schedule: Q01DX011 (ip), vehicle: carboxymethylcellulose (CMC)",61 % of control
same,T/C,"dose: 400.0 mg/kg/injection, schedule: Q01DX011 (ip), vehicle: other",54 % of control
same,T/C,"dose: 800.0 mg/kg/injection, schedule: Q01DX011 (ip), vehicle: carboxymethylcellulose (CMC)",19 % of control
same,T/C,"dose: 800.0 mg/kg/injection, schedule: Q01DX011 (ip), vehicle: other",33 % of control
S=c1nc[nH]c2nc[nH]c12.[Cd],T/C,"dose: 0.4 mg/kg/injection, schedule: Q01DX011 (ip), vehicle: saline",38 % of control
Cn1c(=O)c2[nH]c(N/N=C/c3ccc(F)cc3)nc2n(C)c1=O,T/C,[4],93 % of control
same,T/C,[5],91 % of control
same,T/C,[6],114 % of control
Cn1c(=O)c2c(n(C)c1=O)[n+]([O-])c([N+]1([O-])CCOCC1)n2C,T/C,"dose: 30.0 mg/kg/injection, schedule: Q01DX011 (ip), vehicle: methylcellulose (MC)",91 % of control
same,T/C,"dose: 60.0 mg/kg/injection, schedule: Q01DX011 (ip), vehicle: methylcellulose (MC)",100 % of control
same,T/C,"dose: 120.0 mg/kg/injection, schedule: Q01DX011 (ip), vehicle: methylcellulose (MC)",95 % of control
same,T/C,"dose: 240.0 mg/kg/injection, schedule: Q01DX011 (ip), vehicle: methylcellulose (MC)",95 % of control
Nc1nc2c([nH]c(=S)n2C2OC(CO)C(O)C2O)c(=O)[nH]1 (stereo not given),T/C,[4],89 % of control
same,T/C,[5],156 % of control
same,T/C,[6],112 % of control
same,T/C,"dose: 240.0 mg/kg/injection, schedule: Q01DX011 (ip), vehicle: carboxymethylcellulose (CMC)",110 % of control
Nc1n[se]nc1C(=O)O,T/C,"dose: 0.75 mg/kg/injection, schedule: Q01DX011 (ip), vehicle: carboxymethylcellulose (CMC)",82 % of control
Cc1ccccc1-c1nc2c(N)nc(N)nc2nc1N,T/C,"dose: 50.5 mg/kg/injection, schedule: Q01DX011 (ip), vehicle: carboxymethylcellulose (CMC)",83 % of control
same,T/C,"dose: 57.0 mg/kg/injection, schedule: Q01DX011 (ip), vehicle: methylcellulose (MC)",54 % of control and 75 % of control
same,T/C,"dose: 101.0 mg/kg/injection, schedule: Q01DX011 (ip), vehicle: carboxymethylcellulose (CMC)",75 % of control
same,T/C,"dose: 113.0 mg/kg/injection, schedule: Q01DX011 (ip), vehicle: methylcellulose (MC)",48 % of control and 52 % of control
same,T/C,"dose: 202.0 mg/kg/injection, schedule: Q01DX011 (ip), vehicle: carboxymethylcellulose (CMC)",68 % of control
same,T/C,"dose: 225.0 mg/kg/injection, schedule: Q01DX011 (ip), vehicle: methylcellulose (MC)",82 % of control
CC(=O)OCC(=O)[C@@]1(O)CC[C@H]2[C@@H]3CCC4=CC(=O)CC[C@]4(C)[C@H]3[C@@H](O)C[C@@]21C,T/C,"dose: 1.13 mg/kg/injection, schedule: Q01DX011 (sc), vehicle: steriod suspending solution",225 % of control
same,T/C,"dose: 2.25 mg/kg/injection, schedule: Q01DX011 (sc), vehicle: steriod suspending solution",109 % of control
same,T/C,"dose: 2.5 mg/kg/injection, schedule: Q01DX011 (ip), vehicle: steriod suspending solution",60 % of control
same,T/C,"dose: 3.75 mg/kg/injection, schedule: Q01DX011 (sc), vehicle: steriod suspending solution",117 % of control
same,T/C,"dose: 4.5 mg/kg/injection, schedule: Q01DX011 (sc), vehicle: steriod suspending solution",153 % of control
same,T/C,"dose: 5.0 mg/kg/injection, schedule: Q01DX011 (ip), vehicle: steriod suspending solution",73 % of control
same,T/C,"dose: 5.0 mg/kg/injection, schedule: Q01DX011 (sc), vehicle: steriod suspending solution",56 % of control
same,T/C,"dose: 7.5 mg/kg/injection, schedule: Q01DX011 (sc), vehicle: steriod suspending solution",85 % of control
same,T/C,"dose: 9.0 mg/kg/injection, schedule: Q01DX011 (sc), vehicle: steriod suspending solution",54 % of control
same,T/C,"dose: 10.0 mg/kg/injection, schedule: Q01DX006 (iv), vehicle: steriod suspending solution",88 % of control
same,T/C,"dose: 10.0 mg/kg/injection, schedule: Q01DX011 (ip), vehicle: steriod suspending solution",50 % of control
same,T/C,"dose: 10.0 mg/kg/injection, schedule: Q01DX011 (sc), vehicle: steriod suspending solution",33 % of control
same,T/C,"dose: 20.0 mg/kg/injection, schedule: Q01DX006 (iv), vehicle: steriod suspending solution",32 % of control
same,T/C,"dose: 20.0 mg/kg/injection, schedule: Q01DX011 (ip), vehicle: steriod suspending solution",17 % of control
same,T/C,"dose: 20.0 mg/kg/injection, schedule: Q01DX011 (sc), vehicle: steriod suspending solution",63 % of control
same,T/C,"dose: 30.0 mg/kg/injection, schedule: Q01DX011 (sc), vehicle: steriod suspending solution",19 % of control and 28 % of control
same,T/C,"dose: 31.25 mg/kg/injection, schedule: Q01DX011 (sc), vehicle: steriod suspending solution",19 % of control
same,T/C,"dose: 40.0 mg/kg/injection, schedule: Q01DX006 (iv), vehicle: steriod suspending solution",66 % of control
same,T/C,"dose: 40.0 mg/kg/injection, schedule: Q01DX011 (sc), vehicle: steriod suspending solution",15 % of control
same,T/C,"dose: 45.0 mg/kg/injection, schedule: Q01DX011 (sc), vehicle: steriod suspending solution",27 % of control
same,T/C,"dose: 50.0 mg/kg/injection, schedule: Q01DX011 (sc), vehicle: steriod suspending solution",16 % of control
same,T/C,"dose: 62.5 mg/kg/injection, schedule: Q01DX011 (sc), vehicle: steriod suspending solution",21 % of control
same,T/C,"dose: 70.0 mg/kg/injection, schedule: Q01DX001 (sc), vehicle: steriod suspending solution",34 % of control and 41 % of control
same,T/C,"dose: 70.0 mg/kg/injection, schedule: Q07DX002 (sc), vehicle: steriod suspending solution",17 % of control
same,T/C,"dose: 80.0 mg/kg/injection, schedule: Q01DX006 (iv), vehicle: steriod suspending solution",19 % of control
same,T/C,"dose: 125.0 mg/kg/injection, schedule: Q01DX011 (sc), vehicle: steriod suspending solution",2 % of control
same,T/C,"dose: 140.0 mg/kg/injection, schedule: Q01DX001 (sc), vehicle: steriod suspending solution",23 % of control and 43 % of control
same,T/C,"dose: 160.0 mg/kg/injection, schedule: Q01DX006 (iv), vehicle: steriod suspending solution",28 % of control
same,T/C,"dose: 280.0 mg/kg/injection, schedule: Q01DX001 (sc), vehicle: steriod suspending solution",32 % of control and 46 % of control
same,T/C,"dose: 280.0 mg/kg/injection, schedule: Q07DX002 (sc), vehicle: steriod suspending solution",14 % of control
CC(C)(COS(C)(=O)=O)C(=O)N1CCN(C(=O)C(C)(C)COS(C)(=O)=O)CC1,T/C,"dose: 2.4 mg/kg/injection, schedule: Q01DX011 (ip), vehicle: carboxymethylcellulose (CMC)",162 % of control
same,T/C,"dose: 4.7 mg/kg/injection, schedule: Q01DX011 (ip), vehicle: carboxymethylcellulose (CMC)",82 % of control
same,T/C,"dose: 9.4 mg/kg/injection, schedule: Q01DX011 (ip), vehicle: carboxymethylcellulose (CMC)",60 % of control
same,T/C,"dose: 18.8 mg/kg/injection, schedule: Q01DX011 (ip), vehicle: carboxymethylcellulose (CMC)",57 % of control
O=C(O)CNc1ncnc2[nH]ncc12,T/C,"dose: 12.5 mg/kg/injection, schedule: Q01DX011 (ip), vehicle: methylcellulose (MC)",65 % of control
same,T/C,[7],82 % of control
same,T/C,[1],36 % of control
same,T/C,[2],2 % of control and 7 % of control
C/C(=N\NC(=O)c1ccncc1)c1cccc(Br)c1,T/C,"dose: 0.9 mg/kg/injection, schedule: Q01DX011 (ip), vehicle: carboxymethylcellulose (CMC)",116 % of control
same,T/C,"dose: 3.7 mg/kg/injection, schedule: Q01DX011 (ip), vehicle: carboxymethylcellulose (CMC)",154 % of control
same,T/C,"dose: 7.5 mg/kg/injection, schedule: Q01DX011 (ip), vehicle: methylcellulose (MC)",34 % of control and 57 % of control
same,T/C,[3],65 % of control and 87 % of control
CCC(C)C(N=C1N=CNC2=NC=NC12)C(=O)O (stereo not given),T/C,"dose: 12.0 mg/kg/injection, schedule: Q01DX011 (ip), vehicle: methylcellulose (MC)",108 % of control
same,T/C,[7],106 % of control
same,T/C,[1],80 % of control
same,T/C,[2],98 % of control

# From PubChem BioAssay AID180 (DTP/NCI, 2004)
